Experimental data taken from patent US9757408B2 (Hayashibara Co., Ltd., priority 2010, dated 2017).
Marks after values point to notes of the source that are not given here.

Assays:
[1] = tested on: KK-Ay mice; experiment: KK-Ay mice kidney inflammation: body weight, kidney ratio, blood glucose, HbA1c, renal glomerulus consolidation (Experiment 14); assay type: in vivo; conditions: 10 weeks; for Percentage of subject with renal glomerulus solidification (++): (++) = at least 50% consolidation; for Blood glucose level: fasted 16 hours
Description: Fifty KK-Ay mice, 5-week-old, male, commercialized by Japan Crea Co., Tokyo, Japan, were preliminary bred for one week on CE-2 feed commercialized by Japan Crea Co., Tokyo, Japan, measured for body weight and blood glucose level in blood samples collected from their tail veins, and randomly grouped into five groups, ten heads each, after balancing each measured value. One of the five groups was made into a control group and the mice of the group were allowed to take water freely and bred for 10 weeks (Experiment group 1). […] Throughout the periods of preliminary breeding and testing, the mice were bred while freely allowing them to take CE-2 feed at 22±2° C. under a light-dark cycle of 12 hours (lighting: from 7:00 to 19:00). At the termination of the test, the mice were evaluated based on their body weight, weight ratio of kidney, blood glucose level, hemoglobin A1c (HbA1c), and pathological findings of renal disorder by autopsy, and the percentage of mice with at least 50% consolidation (++) of renal glomerulus against the total glomus is shown in Table 15. The weight ratio of kidney was determined by dividing the weight of kidney by the body weight. The blood glucose level, HbA1c, and denatured score of renal glomerulus were determined by the following method.
At the termination of the test, the mice were fasted for 16 hours prior to autopsy and collected blood from their postcava for measurement of fasting glucose level. The blood glucose level was determined by “GLUCOSE CII-TEST WAKO”, a product name of a commercialized reagent for blood glucose level commercialized by Wako Pure Chemical Industries Ltd., Tokyo, Japan.
At the termination of the test, the mice were fasted for 16 hours before autopsy and collected blood from their postcava for measurement of interdigestive HbA1c level. The measurement was asked FALCO biosystems Ltd., Kyoto, Japan, a privately-owned clinical inspection institute.
At the autopsy, each mouse was collected his kidney which was then fixed with neutral buffered formalin, prepared into a pathologic tissue section in usual manner, and stained with hematoxylin-eosin staining (H-E staining) and PAS staining. For the stained pathologic tissue section of each mouse, they were compared with that of the control and the pathological findings by microscopic observation were judged based on the following criteria and scored for an index of the denaturation of renal disorder.
The degree of renal disorder was judged based on the degree of consolidation of renal glomerulus: The degree was judged based on the four grades; (++), meaning that at least 50% consolidation of renal glomerulus is observed against the total glomus; (+), meaning that at least 25% but below 50% consolidation of renal glomerulus is observed against the total glomus; (±), meaning that less than 25% consolidation of renal glomerulus is observed against the total glomus; and (−), meaning that no consolidation of renal glomerulus is observed against the total glomus. The pathological findings of kidney was judged based on an evaluation criterion for pathologic tissue (see, for example, the lines 12 to 21 at page 862 of “American Journal of Pathology”, Vol. 160, No. 3, pp. 861-867, 2002, by Andrea Hartner et al.).

[2] = tested on: NHEK cells; experiment: Cytotoxicity (released LDH) of NHEK cells irradiated with ultraviolet B (Experiment 17); assay type: cell-based, human; conditions: for LDH Activity: NHEK cells, stimulation by ultraviolet rays
[3] = tested on: PGE2 production from mouse intraperitoneal macrophages; experiment: IC50 for PGE2 production from mouse macrophages, LPS + IFN-γ (Experiment 19); assay type: cell-based; conditions: for IC50: Mus musculus, Macrophage, 20 h, read-out: IC50 Concentration PGE2
Description: After completion of the culture, the supernatant in each well was collected and assayed for cytokines and prostaglandin E2 (called “PGE2”, hereinafter) with ELISA.

[4] = tested on: mouse with severe acute pancreatitis induced by choline-deficient ethionine-added feed; experiment: Severe acute pancreatitis induced by choline-deficient ethionine-added feed, survival (Experiment 15); assay type: in vivo, CD1(ICR) mice
Description: After seven days of a preliminary breeding, the mice were fasted for one day and allowed to freely take a choline-deficient ethionine-added feed, produced by Oriental Yeast Co., Ltd., Tokyo, Japan, for three days from the next day. Thereafter, the mice were fed on normal feed again and then fed on the choline-deficient ethionine-added feed. […] Eight mice in the remaining one group as a control were orally administered through a gastric tube with distilled water twice a day every morning and evening in a liquid volume of 0.2 mL/head/shot from the initiation of fasting. The survival number of mice in each group was macroscopically confirmed up to seven days from the initiation of taking the choline-deficient ethionine-added feed, and the survival rate (%) of mice in each group was determined. The survival rate (%) of mice was determined similarly as in Experiment 1.

[5] = tested on: picryl chloride-sensitized mice; experiment: Picryl chloride-sensitized mice atopic dermatitis, skin score (Experiment 16); assay type: in vivo, NC/Nga mice; conditions: for Skin score, 21 days after the day of sensitizing with picryl chloride: gel on dorsal skin twice a day (ANO 14 mg/mL, AN or IN 13 mg/mL, prednisolone 6.7 mg/mL from 3rd induction week), day 21; for Skin score, 24 days after the day of sensitizing with picryl chloride / Skin score, 28 days after the day of sensitizing with picryl chloride / Skin score, 31 days after the day of sensitizing with picryl chloride / Skin score, 35 days after the day of sensitizing with picryl chloride / Skin score, 39 days after the day of sensitizing with picryl chloride / Skin score, 42 days after the day of sensitizing with picryl chloride / Skin score, 45 days after the day of sensitizing with picryl chloride: gel on dorsal skin twice a day (ANO 14 mg/mL, AN or IN 13 mg/mL, prednisolone 6.7 mg/mL); for Skin score, 24 days after the day of sensitizing with picryl chloride: day 24; for Skin score, 28 days after the day of sensitizing with picryl chloride: day 28; for Skin score, 31 days after the day of sensitizing with picryl chloride: day 31; for Skin score, 35 days after the day of sensitizing with picryl chloride: day 35; for Skin score, 39 days after the day of sensitizing with picryl chloride: day 39; for Skin score, 42 days after the day of sensitizing with picryl chloride: day 42; for Skin score, 45 days after the day of sensitizing with picryl chloride: day 45
Description: The results are in Table 19 in parallel.

[6] = oral 46 mg/kg body weight/shot twice a day
[7] = oral 139 mg/kg body weight/shot twice a day
[8] = oral 124 mg/kg body weight/shot twice a day

Nc1c2ncn([C@@H]3O[C@H](CO)[C@@H](O)[C@H]3O)c2nc[n+]1[O-] [ANO, adenosine N1-oxide]
HbA1c value ([1]; 30 mg/kg body weight/day): 6.79%
Percentage of subject with renal glomerulus solidification (++) ([1]; 30 mg/kg body weight/day): 50%
Blood glucose level ([1]; 30 mg/kg body weight/day): 304 mg/dL
HbA1c value ([1]; 100 mg/kg body weight/day, 100 mg/kg/day): 5.40* %
Percentage of subject with renal glomerulus solidification (++) ([1]; 100 mg/kg body weight/day): 30%
Blood glucose level ([1]; 100 mg/kg body weight/day): 305 mg/dL
HbA1c value ([1]; 100 mg/kg body weight/day, listed as adenosine N1-oxide, 100 mg/kg/day): 5.40%
LDH Activity ([2]; 1 μM): 0.32 absorbance
LDH Activity ([2]; 5 μM): 0.23 absorbance
LDH Activity ([2]; 10 μM): 0.14 absorbance
LDH released from NHEK cells by the stimulation of ultraviolet rays ([2]; UVB 40 mJ/cm^2, supernatant at four hours): inhibited LDH released
IC50 [3]: 1.2 µM
inhibitory action on the production of PGE2 (in words) ([3]; mouse intraperitoneal macrophages stimulated with LPS and IFN-γ): showed an inhibitory action
Survival rate (%) of mice, 48 Hours [4, 6]: 100.0%
Survival rate (%) of mice, 70 Hours [4, 6]: 100.0%
Survival rate (%) of mice, 78 Hours [4, 6]: 50.0%
Survival rate (%) of mice, 94 Hours [4, 6]: 25.0%
Survival rate (%) of mice, 102 Hours [4, 6]: 12.5%
Survival rate (%) of mice, 144 Hours [4, 6]: 12.5%
Survival rate (%) of mice, 48 Hours [4, 7]: 100.0%
Survival rate (%) of mice, 70 Hours [4, 7]: 87.5%
Survival rate (%) of mice, 78 Hours [4, 7]: 75.0%
Survival rate (%) of mice, 94 Hours [4, 7]: 75.0%
Survival rate (%) of mice, 102 Hours [4, 7]: 75.0%
Survival rate (%) of mice, 144 Hours [4, 7]: 75.0%
Skin score, 21 days after the day of sensitizing with picryl chloride [5]: 0.75
Skin score, 24 days after the day of sensitizing with picryl chloride [5]: 1.00
Skin score, 28 days after the day of sensitizing with picryl chloride [5]: 2.25
Skin score, 31 days after the day of sensitizing with picryl chloride [5]: 3.38
Skin score, 35 days after the day of sensitizing with picryl chloride [5]: 4.50
Skin score, 39 days after the day of sensitizing with picryl chloride [5]: 3.58*
Skin score, 42 days after the day of sensitizing with picryl chloride [5]: 4.38*
Skin score, 45 days after the day of sensitizing with picryl chloride [5]: 3.63*
recovery of skin wounds in the inflammation-induced part ([5]; picryl chloride-sensitized NC/Nga mice, gel application): cure/improvement of wounds induced by inflammation was observed

Nc1ncnc2c1ncn2[C@@H]1O[C@H](CO)[C@@H](O)[C@H]1O [AN, adenosine]
HbA1c value ([1]; 94 mg/kg body weight/day): 6.72%
Percentage of subject with renal glomerulus solidification (++) ([1]; 94 mg/kg body weight/day): 100%
Blood glucose level ([1]; 94 mg/kg body weight/day): 342 mg/dL
LDH Activity ([2]; 1 μM): 0.35 absorbance
LDH Activity ([2]; 5 μM): 0.36 absorbance
LDH Activity ([2]; 10 μM): 0.35 absorbance
IC50 [3]: > 200 µM
Survival rate (%) of mice, 48 Hours [4, 8]: 100.0%
Survival rate (%) of mice, 70 Hours [4, 8]: 20.0%
Survival rate (%) of mice, 78 Hours [4, 8]: 50.0%
Survival rate (%) of mice, 94 Hours [4, 8]: 25.0%
Survival rate (%) of mice, 102 Hours [4, 8]: 12.5%
Survival rate (%) of mice, 144 Hours [4, 8]: 12.5%
Skin score, 21 days after the day of sensitizing with picryl chloride [5]: 0.50
Skin score, 24 days after the day of sensitizing with picryl chloride [5]: 0.50
Skin score, 28 days after the day of sensitizing with picryl chloride [5]: 2.75
Skin score, 31 days after the day of sensitizing with picryl chloride [5]: 3.55
Skin score, 35 days after the day of sensitizing with picryl chloride [5]: 5.56
Skin score, 39 days after the day of sensitizing with picryl chloride [5]: 5.78
Skin score, 42 days after the day of sensitizing with picryl chloride [5]: 6.22
Skin score, 45 days after the day of sensitizing with picryl chloride [5]: 5.50

OC[C@H]1O[C@@H](n2cnc3c(O)ncnc32)[C@H](O)[C@@H]1O [IN, inosine]
HbA1c value ([1]; 94 mg/kg body weight/day): 6.55%
Percentage of subject with renal glomerulus solidification (++) ([1]; 94 mg/kg body weight/day): 80%
Blood glucose level ([1]; 94 mg/kg body weight/day): 340 mg/dL
LDH Activity ([2]; 1 μM): 0.34 absorbance
LDH Activity ([2]; 5 μM): 0.34 absorbance
LDH Activity ([2]; 10 μM): 0.32 absorbance
IC50 [3]: > 200 µM
Survival rate (%) of mice, 48 Hours [4, 8]: 100.0%
Survival rate (%) of mice, 70 Hours [4, 8]: 60.0%
Survival rate (%) of mice, 78 Hours [4, 8]: 62.5%
Survival rate (%) of mice, 94 Hours [4, 8]: 50.0%
Survival rate (%) of mice, 102 Hours [4, 8]: 25.0%
Survival rate (%) of mice, 144 Hours [4, 8]: 12.5%
Skin score, 21 days after the day of sensitizing with picryl chloride [5]: 0.50
Skin score, 24 days after the day of sensitizing with picryl chloride [5]: 0.50
Skin score, 28 days after the day of sensitizing with picryl chloride [5]: 2.50
Skin score, 31 days after the day of sensitizing with picryl chloride [5]: 3.22
Skin score, 35 days after the day of sensitizing with picryl chloride [5]: 5.20
Skin score, 39 days after the day of sensitizing with picryl chloride [5]: 5.66
Skin score, 42 days after the day of sensitizing with picryl chloride [5]: 6.00
Skin score, 45 days after the day of sensitizing with picryl chloride [5]: 5.43
